Read-outs that look alike come from different tables or passages of the source. Blank lines part the entries; values can stand above or below the molecule they belong to.
What was measured:
β2i = target: T1, β2i (Homo sapiens, UniProt P40306); assay: ABPP assay with probe 97 in Raji cell lysates; assay type: biochemical; settings: for labeling of β2i by probe 97 after preincubation with inhibitor: LU-002i at 3 μM, LU-002c at high concentrations, Figure 4B
T1 sequence (P40306 40-273): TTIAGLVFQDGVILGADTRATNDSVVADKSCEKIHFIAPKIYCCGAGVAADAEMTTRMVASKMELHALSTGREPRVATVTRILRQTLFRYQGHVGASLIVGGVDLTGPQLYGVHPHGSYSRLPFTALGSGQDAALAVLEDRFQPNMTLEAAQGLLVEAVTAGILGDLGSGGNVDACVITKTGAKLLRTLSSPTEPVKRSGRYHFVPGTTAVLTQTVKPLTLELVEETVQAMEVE

[1] = target: T2, human proteasome subunit β2i (Homo sapiens, UniProt P40306); assay: Competitive ABPP in Raji cell lysates; assay type: biochemical; settings: LU-002i 3 μM, LU-002c 0.3 μM, LU-102 1 μM, Figure 4B
T2 sequence (P40306 40-273): T1 sequence (P40306 40-273)

[2] = target: T3, human proteasome subunit β2c (Homo sapiens, UniProt Q99436); assay: Competitive ABPP in Raji cell lysates; assay type: biochemical; settings: for IC50: read-out: Apparent IC50 β2c
T3 sequence (Q99436 44-277): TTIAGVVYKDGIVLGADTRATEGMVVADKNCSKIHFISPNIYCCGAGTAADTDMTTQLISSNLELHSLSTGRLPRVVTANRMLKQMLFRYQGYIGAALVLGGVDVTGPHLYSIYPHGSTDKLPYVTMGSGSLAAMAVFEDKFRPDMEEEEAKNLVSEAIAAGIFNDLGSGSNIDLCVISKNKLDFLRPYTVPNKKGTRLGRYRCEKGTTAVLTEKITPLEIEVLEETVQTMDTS

[3] = Solubility in aqueous solutions; assay type: physicochemical; settings: stated in words
[4] = test system: human proteasome subunit β2c; assay: Competitive ABPP in Raji cell lysates; assay type: biochemical

labeling of β2i by probe 97 after preincubation with inhibitor (β2i): completely abolished
Compound: CC(C)C[C@H](NC(=O)[C@H](Cc1ccccc1)N=[N+]=[N-])C(=O)N[C@@H](CC(C)C)C(=O)N[C@H](/C=C/S(C)(=O)=O)Cc1ccc(CN)cc1 [Compound 1, reference compound]

labeling of β2i by probe 97 after preincubation with inhibitor (β2i): partially reduced
β2i labeling by the three-probe mixture after inhibitor treatment [1]: partially inhibited
β2c labeling by the three-probe mixture after inhibitor treatment ([2]; Raji cell lysates, LU-002c 0.3 μM, LU-102 1 μM, Figure 4B): completely prevented
Compound: CC(C)C[C@H](NC(=O)[C@H](Cc1ccccc1)N=[N+]=[N-])C(=O)N[C@@H](C)C(=O)N[C@H](/C=C/S(C)(=O)=O)Cc1ccc(CN)cc1 [Compound 4]

Compound: COc1ccc(C[C@H](NC(=O)[C@H](C)NC(=O)CN2CCOCC2)C(=O)N[C@@H](CC2CCCC3CCCCC32)C(=O)[C@@]2(C)CO2)cc1 (stereo partly shown) [Compound 5]
solubility in aqueous solutions [3]: poorly soluble

decreased potency for β2c compared to LU-102 ([2]; initial screening): 23 fold
Compound: CC(C)C[C@H](NC(=O)c1cnccn1)C(=O)N[C@@H](CC(C)C)C(=O)N[C@H](/C=C/S(C)(=O)=O)Cc1ccc(CN)cc1 [Compound 7]

Compound: COC[C@H](NC(=O)[C@H](CC(C)C)NC(=O)c1cnc(C)s1)C(=O)N[C@H](/C=C/S(C)(=O)=O)Cc1ccc(CN)cc1 [Compound 20]
selectivity for β2c over β2i ([4]; Raji cell extracts, wider range of concentrations (Table 2)): ≥ 27 fold
selectivity for β2c over β2i ([4]; initial screening (Table 1)): 14 fold

Compound: Cc1ncc(C(=O)N[C@@H](CC2CCCCC2)C(=O)N[C@@H](CC2CCCCC2)C(=O)N[C@H](/C=C/S(C)(=O)=O)Cc2ccc(CN)cc2)s1 [Compound 36]
selectivity for β2c over β2i ([4]; initial screening (Table 1)): 10.5 fold

Compound: COc1ccc(C[C@H](NC(=O)[C@H](C)NC(=O)CN2CCOCC2)C(=O)N[C@@H](CCC2CCCCC2)C(=O)[C@@]2(C)CO2)cc1 [Compound 39, Morp-Ala-Tyr(Me)-HomoCha-EK]
IC50 ([2]; Raji cell lysates, wider range of final concentrations, Table 5): 2.5 µM

Compound: COc1ccc(C[C@H](NC(=O)[C@H](C)NC(=O)CN2CCOCC2)C(=O)N[C@@H](C[C@H]2CCCc3ccccc32)C(=O)[C@@]2(C)CO2)cc1 [Compound 68, Morp-Ala-Tyr(Me)-1-(R)-TetraNal-EK]
IC50 ([2]; Raji cell lysates, Table 6): > 100 µM

Compound: COc1ccc(C[C@H](NC(=O)[C@H](C)NC(=O)CN2CCOCC2)C(=O)N[C@@H](C[C@@H]2CCCc3ccccc32)C(=O)[C@@]2(C)CO2)cc1 [Compound 71, Morp-Ala-Tyr(Me)-1-(S)-TetraNal-EK]
IC50 ([2]; Raji cell lysates, Table 6): > 100 µM

Compound: COc1ccc(C[C@H](NC(=O)[C@H](C)NC(=O)CN2CCOCC2)C(=O)N[C@@H](C[C@H]2CCCC3CCCCC32)C(=O)[C@@]2(C)CO2)cc1 (stereo partly shown) [Compound 74, Morp-Ala-Tyr(Me)-1-DecAla-EK]
IC50 ([2]; Raji cell lysates, Table 6): > 100 µM

Compound: COc1ccc(C[C@H](NC(=O)[C@H](C)NC(=O)CN2CCOCC2)C(=O)N[C@@H](C[C@@H]2CCCC3CCCCC32)C(=O)[C@@]2(C)CO2)cc1 (stereo partly shown) [Compound 77, Morp-Ala-Tyr(Me)-1-DecAla-EK]
IC50 ([2]; Raji cell lysates, Table 6): 28 µM

Compound: COc1ccc(C[C@H](NC(=O)[C@H](C)NC(=O)CN2CCOCC2)C(=O)N[C@@H](C[C@H]2CCC[C@@H]3CCCC[C@@H]32)C(=O)[C@@]2(C)CO2)cc1 [Compound 86, Morp-Ala-Tyr(Me)-1-DecAla-EK]
IC50 ([2]; Raji cell lysates, Table 6): > 100 µM

β2i labeling by ABP 97 (β2i; final concentration of 3 μM, Figure 4A): selective
Compound: CC1=CC(C)=N/C1=C(/CCCCc1cn(CCOc2ccc(C[C@H](NC(=O)[C@H](C)NC(=O)CN3CCOCC3)C(=O)N[C@@H](CC3CCCC4CCCCC43)C(=O)[C@@]3(C)CO3)cc2)nn1)c1c(C)cc(C)n1B(F)F (stereo partly shown) [Compound 97, Morp-Ala-Tyr(O–C2H4-BODIPY(FL))-1-DecAla-EK]
